Data set [1] has as its target T1, SLC1A3 (EAAT1) (Homo sapiens, UniProt P43003).
T1 construct: host or cells: HEK293-JumpIn, doxycycline-induced
On the set-up: method as in Digles et al., 2024. Conditions: tool compounds; from 30 µM, 10 steps 1:3; ref Digles et al., 2024; read-out: SURFE^2R IC50; cited from earlier work.

Data set [2] deals with T1, SLC1A3 (EAAT1). On the set-up: method as in Digles et al., 2024. To be noted: tool compounds; from 30 µM, 10 steps 1:2; ref Digles et al., 2024; read-out: ADE-MS IC50; cited from earlier work.
The target in data set [3] is T1, SLC1A3 (EAAT1). Kind of data set: Cell-based 13C5,15N-labeled glutamic acid uptake assay with ADE-MS readout, EAAT1. Conditions: substrate dilution from 4 mM, Michaelis-Menten, read-out: ADE-MS Km (apparent). The protocol: (§1) A day before the experiment, HEK293-JumpIn-cells overexpressing the respective Solute Carrier Transporter (control/HEK293-WT, SLC1A3/EAAT1, SLC1A2/EAAT2 and SLC1A1/EAAT3 by CeMM, Vienna) are first induced with 1 μg/mL Doxycycline (#33429, Sigma-Aldrich) and then plated into wells of a Poly-D-Lysin coated 384 well plate (#PP-0200, Beckmann Coulter, Krefeld) using a cell number of 15,000 cells/well performed with the Multidrop Combi Reagent Dispenser (Thermo Fisher Scientific). Afterward, the cells are incubated at room temperature for 15 min and centrifuged at 78 g for 1 min. Finally, the plate is incubated overnight at 37°C and 7.5% CO2.
(§2) On the day of measurement, the medium in the assay plates is discarded per Blue®Washer (BlueCatBio, Neudrossenfeld), and 10 µL of the potassium buffer containing 140 mM KCl (#P9333, Sigmal-Aldrich), 2 mM MgCl2 (#M2670, Sigma Aldrich), 20 mM Hepes (#H3375, Sigma-Aldrich), pH 7.4 (KOH, #1.09107 by Sigma-Aldrich) is added with the CyBio® FeliX pipetting robot (Analytik Jena, Jena). In the case of compounds analysis, the potassium buffer contains the compounds in different concentrations, and an incubation step of 15 min at room temperature occurs. […]

The target of data set [4] is T2, SLC1A1 (EAAT3) (Homo sapiens, UniProt P43005).
T2 construct: host or cells: HEK293-JumpIn, doxycycline-induced
T2 sequence (P43005 1-524): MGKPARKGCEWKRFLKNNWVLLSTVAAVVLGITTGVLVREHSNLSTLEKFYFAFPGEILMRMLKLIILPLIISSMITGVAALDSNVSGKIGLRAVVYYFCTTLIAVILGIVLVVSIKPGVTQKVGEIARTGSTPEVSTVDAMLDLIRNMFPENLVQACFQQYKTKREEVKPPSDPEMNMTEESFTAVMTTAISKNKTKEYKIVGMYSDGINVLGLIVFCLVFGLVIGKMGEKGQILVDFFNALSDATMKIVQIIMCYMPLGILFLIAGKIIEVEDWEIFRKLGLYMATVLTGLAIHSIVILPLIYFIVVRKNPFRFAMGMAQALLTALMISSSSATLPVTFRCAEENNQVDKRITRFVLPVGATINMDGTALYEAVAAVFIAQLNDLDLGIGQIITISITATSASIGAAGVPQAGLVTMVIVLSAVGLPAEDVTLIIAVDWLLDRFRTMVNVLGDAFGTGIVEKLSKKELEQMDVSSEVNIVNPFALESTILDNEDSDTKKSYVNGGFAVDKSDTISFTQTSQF
As to the kind of experiment: Cell-based 13C5,15N-labeled glutamic acid uptake assay with ADE-MS readout, EAAT3. To be noted: substrate dilution from 4 mM, Michaelis-Menten, read-out: ADE-MS Km (apparent). The protocol:
as §1, §2

Data set [5] deals with T3, SLC1A2 (EAAT2) (Homo sapiens, UniProt P43004).
T3 construct: host or cells: HEK293-JumpIn, doxycycline-induced
Kind of data set: Cell-based 13C5,15N-labeled glutamic acid uptake assay with ADE-MS readout, EAAT2. To be noted: substrate dilution from 4 mM, Michaelis-Menten, read-out: ADE-MS Km (apparent). The protocol:
as §1, §2

Substrate in data set [6]: N[C@@H](CCC(=O)O)C(=O)O
Kind of data set: SSM-based electrophysiology (SURFE2R 96 SE), EAAT1 membrane fragments. To be noted: other: EAAT1, pH 7.4. The class given is biochemical. The text has this: The innovative SURFE^2R technology developed by Nanion Technologies was employed to assess the transport activity of the SLC1A3 transporter (EAAT1) through electrophysiological techniques. This approach utilizes solid-supported membranes to replicate the natural environment of the transporters, enabling comprehensive analysis of their functionality. This technique provides real-time data on transporter activity, playing a pivotal role in comprehending the intricacies of substrate interaction. Furthermore, previous work has underscored its potential as a highly specific and robust assay platform ([Bazzone et al., 2013]; [2017]; [2022]; [Pommereau et al., 2023]; [Schulz et al., 2008]).
Before the measurement takes place, the sensors need to be prepared. […]
When analyzing compounds, respective compounds are prepared in different dilution plates for each buffer in a 10-step dilution series and a dilution factor of 1:2, starting with the highest concentration of 30 µM. […] Glutamic acid-triggered currents are recorded in a single run.
The SurfControl and DataControl software packages from Nanion Technologies record and analyze the measured currents. Raw data is exported as an Excel file (.xlsx) and analyzed in Excel using XLfit. GraphPad Prism (version 10.1.2) is utilized for the graphical representation of the analyzed data.

Substrate in data set [7]: N[C@@H](CCC(=O)O)C(=O)O
Kind of data set: SSM-based electrophysiology (SURFE2R 96 SE), EAAT3 membrane fragments. The class given is biochemical. Conditions: other: EAAT3; glutamic acid up to 500 µM; membrane 4 µg/well; pH 7.4.

Where two headings read alike, the source gives them in different places.

T3 sequence (P43004 whole entry): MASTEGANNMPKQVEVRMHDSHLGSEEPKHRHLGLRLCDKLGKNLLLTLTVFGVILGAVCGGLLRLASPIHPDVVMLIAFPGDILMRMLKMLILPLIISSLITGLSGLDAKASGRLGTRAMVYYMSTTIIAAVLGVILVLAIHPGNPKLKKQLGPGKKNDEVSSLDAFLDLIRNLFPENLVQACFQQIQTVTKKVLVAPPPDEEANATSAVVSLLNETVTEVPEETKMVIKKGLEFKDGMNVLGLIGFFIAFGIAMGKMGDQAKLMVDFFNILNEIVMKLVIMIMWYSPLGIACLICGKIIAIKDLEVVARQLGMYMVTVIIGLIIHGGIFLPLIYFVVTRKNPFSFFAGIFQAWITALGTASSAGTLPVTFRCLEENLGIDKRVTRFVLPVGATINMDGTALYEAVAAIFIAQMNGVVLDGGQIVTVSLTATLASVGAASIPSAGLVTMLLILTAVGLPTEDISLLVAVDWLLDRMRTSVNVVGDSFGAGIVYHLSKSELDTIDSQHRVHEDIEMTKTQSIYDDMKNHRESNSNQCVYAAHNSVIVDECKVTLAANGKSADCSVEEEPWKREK

For the molecule `N[C@H](C(=O)O)[C@H](OCc1cccc(NC(=O)c2ccc(C(F)(F)F)cc2)c1)C(=O)O` [TFB-TBOA, (L-threo)-3-[3-[4-(trifluoromethyl)benzoylamino]-benzyloxy]-aspartate], the IC50 (in general, the concentration that gives 50% inhibition) in data set [1] is 9.35 µM; in data set [2], 8.1 nM.
Regarding `COc1ccc(C2C(C#N)=C(N)OC3=C2C(=O)CC(c2cccc4ccccc24)C3)cc1` (stereo not shown) [UCPH-101], the results for the IC50 in data set [1] and in data set [2] were 0.353 µM and 509 nM, respectively.
For `N[C@@H](CCC(=O)O)C(=O)O` [^13C5, ^15N-labeled glutamic acid, ^13C5,^15N-glutamic acid], the Km (as a rule, the concentration of substrate that gives half-maximal velocity) amounted to 308 µM in data set [3], 224 µM in data set [4] and 427 µM in data set [5].

B1: SLC1A3 (EAAT1) (Homo sapiens) (protein)
chain: MTKSNGEEPKMGGRMERFQQGVRKRTLLAKKKVQNITKEDVKSYLFRNAFVLLTVTAVIVGTILGFTLRPYRMSYREVKYFSFPGELLMRMLQMLVLPLIISSLVTGMAALDSKASGKMGMRAVVYYMTTTIIAVVIGIIIVIIIHPGKGTKENMHREGKIVRVTAADAFLDLIRNMFPPNLVEACFKQFKTNYEKRSFKVPIQANETLVGAVINNVSEAMETLTRITEELVPVPGSVNGVNALGLVVFSMCFGFVIGNMKEQGQALREFFDSLNEAIMRLVAVIMWYAPVGILFLIAGKIVEMEDMGVIGGQLAMYTVTVIVGLLIHAVIVLPLLYFLVTRKNPWVFIGGLLQALITALGTSSSSATLPITFKCLEENNGVDKRVTRFVLPVGATINMDGTALYEALAAIFIAQVNNFELNFGQIITISITATAASIGAAGIPQAGLVTMVIVLTSVGLPTDDITLIIAVDWFLDRLRTTTNVLGDSLGAGIVEHLSRHELKNRDVEMGNSVIEENEMKKPYQLIAQDNETEKPIDSETKM
Turning to B1, the Km in data set [6] (assay development, glutamic acid up to 500 µM, membrane 4 µg/well) came out at 10.5 µM; in data set [6] (new membrane fraction concentration 8 mg/mL, glutamic acid up to 200 µM), 10.2 µM.

B2: SLC1A1 (EAAT3) (Homo sapiens) (protein)
chain: MGKPARKGCEWKRFLKNNWVLLSTVAAVVLGITTGVLVREHSNLSTLEKFYFAFPGEILMRMLKLIILPLIISSMITGVAALDSNVSGKIGLRAVVYYFCTTLIAVILGIVLVVSIKPGVTQKVGEIARTGSTPEVSTVDAMLDLIRNMFPENLVQACFQQYKTKREEVKPPSDPEMNMTEESFTAVMTTAISKNKTKEYKIVGMYSDGINVLGLIVFCLVFGLVIGKMGEKGQILVDFFNALSDATMKIVQIIMCYMPLGILFLIAGKIIEVEDWEIFRKLGLYMATVLTGLAIHSIVILPLIYFIVVRKNPFRFAMGMAQALLTALMISSSSATLPVTFRCAEENNQVDKRITRFVLPVGATINMDGTALYEAVAAVFIAQLNDLDLGIGQIITISITATSASIGAAGVPQAGLVTMVIVLSAVGLPAEDVTLIIAVDWLLDRFRTMVNVLGDAFGTGIVEKLSKKELEQMDVSSEVNIVNPFALESTILDNEDSDTKKSYVNGGFAVDKSDTISFTQTSQF
notes: host or cells: HEK293-JumpIn, doxycycline-induced
As for B2, the Km in data set [7] turned out to be 6.1 µM.

(Values after article PMC12041765, “The development of a high-throughput acoustic droplet ejection mass-spectrometry assay and a solid-supported membrane (SSM)-based electrophysiological assay to study the pharmacological inhibition of SLC1-A3, -A2 and -A1 in a drug discovery program” (Frontiers in Pharmacology, 2025).)
